In patent US5192774A, “Substituted acetamide derivatives, process for their preparation and antiulcer drug containing same” (Zeria Pharmaceutical Co., Ltd., priority 1988, dated 1993):

What was measured:
[1] = tested on: gastric acid secretion (histamine-stimulated); assay: Effects on Gastric Acid Secretion of Anesthesia Fistula Rat by Histamine; format: in vivo, rat (male SD); details: 30 mg/kg, histamine infusion, acid output 1 to 4 hours after administration
Description: The aggressive factor inhibition action was evaluated from the effects on the gastric acid secretion of anesthesia fistula rats by histamine, while the protective factor potentiation action was evaluated from the effects observed in a hydrochloric acid-ethanol ulcer model. In the Tables, the column of test compounds indicates Example numbers where the compounds are prepared. Male SD rats (Japan Charles River Co., Ltd.) each weighing 180 to 200 g were fasted for 24 hours before celiotomy with etherrization. A feeding tube (fr. 3.5) for injecting test medicines was inserted into the duodenum, and the pylorus was ligatured. A polyethylene tube (inner diameter: 7 mm) was used in the anterior stomach and gastric fistula was performed. After washing the inside of the stomach with heated physiological salt solution (37° C.) several times, the body was closed. A tube with a fin was inserted into the caudal vein and was fastened with a tape and it was connected to a infusion pump (Harvard). The rats were enclosed in a KN Ballman II cage (Natsume Seisakusho). Gastric juice flowed from the fistula was collected with a […] one hour. Starting form one hour after the operation, histamine was continuously injected at a rate of 1.4 ml/hour through the caudal vein. Then, test compounds suspended in 0.5% sodium caboxy methyl cellulose (Na-CMC) were administered one hour after the start of the histamine injection. The gastric juice thus extracted in a period from one hour after the administration of the chemical to four hours after that was titrated by using an automatic titration aparatus (Kyoto Electronic) with 0.1N NaOH to adjust pH 7, and the quantity of the gastric juice was measured to obtain the total acid output. […] [formula]

[2] = tested on: ulcer formation caused by hydrochloric acid-ethanol; assay: Hydrochloric Acid-Ethanol Ulcer Test; format: in vivo, rat (male SD); details: 100 mg/kg, oral, 30 minutes before hydrochloric acid-ethanol; rat
Description: The aggressive factor inhibition action was evaluated from the effects on the gastric acid secretion of anesthesia fistula rats by histamine, while the protective factor potentiation action was evaluated from the effects observed in a hydrochloric acid-ethanol ulcer model. In the Tables, the column of test compounds indicates Example numbers where the compounds are prepared.
Male SD rats each weighing 170 to 190 g were fasted for 24 hours, and 1 ml of 150 mM hydrochloric acid-60% ethanol was orally administered to each rat. After one hour, rats were clubbed to death, and the stomach was extracted. 10 ml of 2% formalin solution was applied to the stomach for fixing for 10 minutes. The length (mm) of the injuries in the tunica mucosa taken place in the glandular stomach was measured under a stereoscopic microscope. The total length of the injuries of the individual was taken as the ulcer index.
Test compounds or control (1% Na-CMC) were orally administered in an amount of 0.5 ml/100 g, 30 minutes before the administration of hydrochloric acid-ethanol.

[3] = tested on: ICR:Crj 5 week old male mice; assay: Toxicity test, repeated oral administration for 14 days; format: in vivo, mouse (ICR:Crj; details: 500 mg/kg/day
Description: (§1) The compounds according to Examples 2, 7, 8 and 12 were respectively suspended in 3% gum arabic solution and continuously, forcedly and orally administrated to three ICR:Crj 5 week old male mice for 14 days at a dose of 500 mg/kg/day.

[4] = Acute toxicity test by oral administration; format: in vivo
Description: as §1

Row | Structure (SMILES) | Gastric acid secretion inhibition effect (%) [1] [%] | Ulcer Inhibition Rate(%) [2] [%] | death [3] | LD50 ([4]; mouse, in vivo, po) [mg/kg] | LD50 value ([4]; acute, oral administration) [mg/kg]
1 | CN/C(=N/CCSCc1nc[nH]c1C)NC#N [Cimetidine, reference compound] | 32.3 | 22.7 |  |  | 
2 | O=C(CSCCO)NCCCOc1cccc(CN2CCCCC2)c1 [Example 2, N-[3-[3-(piperidinomethyl)phenoxy]propyl]-2-(2-hydroxyethyl-1-thio)acetamide] | 79.5 | 72.5 | No rat died | 2380 | 
3 | O=C(CS(=O)(=O)CCO)NCCCOc1cccc(CN2CCCCC2)c1 [Example 7, N-[3-[3-(piperidinomethyl)phenoxy]propyl]-2-(2-hydroxyethylsulfonyl)acetamide] | 59.4 |  | No rat died |  | 
4 | O=C(CSCCO)NCCCOc1cccc(CN2CCCC2)c1 [Example 8, N-[3-[3-(1-pyrrolidinylmethyl)phenoxy]propyl]-2-(2-hydroxyethyl-1-thio)acetamide] | 70.9 |  | No rat died |  | 
5 | CC(=O)OCCSCC(=O)NCCCOc1cccc(CN2CCCC2)c1 [Example 12, N-[3-[3-(1-pirrolidinylmethyl)phenoxy]propyl]-2-(2-acetoxyethyl-1-thio)acetamide] | 55.4 |  | No rat died |  | 
6 | O=C(CO)NCCCOc1cccc(CN2CCCCC2)c1 [Roxatidine, reference compound] | 68.8 | 69.4 |  |  | 755
